Where a name gives a salt, the structure may show the parent alone.

hNav1.7, sequence (Q15858 whole entry, looked up): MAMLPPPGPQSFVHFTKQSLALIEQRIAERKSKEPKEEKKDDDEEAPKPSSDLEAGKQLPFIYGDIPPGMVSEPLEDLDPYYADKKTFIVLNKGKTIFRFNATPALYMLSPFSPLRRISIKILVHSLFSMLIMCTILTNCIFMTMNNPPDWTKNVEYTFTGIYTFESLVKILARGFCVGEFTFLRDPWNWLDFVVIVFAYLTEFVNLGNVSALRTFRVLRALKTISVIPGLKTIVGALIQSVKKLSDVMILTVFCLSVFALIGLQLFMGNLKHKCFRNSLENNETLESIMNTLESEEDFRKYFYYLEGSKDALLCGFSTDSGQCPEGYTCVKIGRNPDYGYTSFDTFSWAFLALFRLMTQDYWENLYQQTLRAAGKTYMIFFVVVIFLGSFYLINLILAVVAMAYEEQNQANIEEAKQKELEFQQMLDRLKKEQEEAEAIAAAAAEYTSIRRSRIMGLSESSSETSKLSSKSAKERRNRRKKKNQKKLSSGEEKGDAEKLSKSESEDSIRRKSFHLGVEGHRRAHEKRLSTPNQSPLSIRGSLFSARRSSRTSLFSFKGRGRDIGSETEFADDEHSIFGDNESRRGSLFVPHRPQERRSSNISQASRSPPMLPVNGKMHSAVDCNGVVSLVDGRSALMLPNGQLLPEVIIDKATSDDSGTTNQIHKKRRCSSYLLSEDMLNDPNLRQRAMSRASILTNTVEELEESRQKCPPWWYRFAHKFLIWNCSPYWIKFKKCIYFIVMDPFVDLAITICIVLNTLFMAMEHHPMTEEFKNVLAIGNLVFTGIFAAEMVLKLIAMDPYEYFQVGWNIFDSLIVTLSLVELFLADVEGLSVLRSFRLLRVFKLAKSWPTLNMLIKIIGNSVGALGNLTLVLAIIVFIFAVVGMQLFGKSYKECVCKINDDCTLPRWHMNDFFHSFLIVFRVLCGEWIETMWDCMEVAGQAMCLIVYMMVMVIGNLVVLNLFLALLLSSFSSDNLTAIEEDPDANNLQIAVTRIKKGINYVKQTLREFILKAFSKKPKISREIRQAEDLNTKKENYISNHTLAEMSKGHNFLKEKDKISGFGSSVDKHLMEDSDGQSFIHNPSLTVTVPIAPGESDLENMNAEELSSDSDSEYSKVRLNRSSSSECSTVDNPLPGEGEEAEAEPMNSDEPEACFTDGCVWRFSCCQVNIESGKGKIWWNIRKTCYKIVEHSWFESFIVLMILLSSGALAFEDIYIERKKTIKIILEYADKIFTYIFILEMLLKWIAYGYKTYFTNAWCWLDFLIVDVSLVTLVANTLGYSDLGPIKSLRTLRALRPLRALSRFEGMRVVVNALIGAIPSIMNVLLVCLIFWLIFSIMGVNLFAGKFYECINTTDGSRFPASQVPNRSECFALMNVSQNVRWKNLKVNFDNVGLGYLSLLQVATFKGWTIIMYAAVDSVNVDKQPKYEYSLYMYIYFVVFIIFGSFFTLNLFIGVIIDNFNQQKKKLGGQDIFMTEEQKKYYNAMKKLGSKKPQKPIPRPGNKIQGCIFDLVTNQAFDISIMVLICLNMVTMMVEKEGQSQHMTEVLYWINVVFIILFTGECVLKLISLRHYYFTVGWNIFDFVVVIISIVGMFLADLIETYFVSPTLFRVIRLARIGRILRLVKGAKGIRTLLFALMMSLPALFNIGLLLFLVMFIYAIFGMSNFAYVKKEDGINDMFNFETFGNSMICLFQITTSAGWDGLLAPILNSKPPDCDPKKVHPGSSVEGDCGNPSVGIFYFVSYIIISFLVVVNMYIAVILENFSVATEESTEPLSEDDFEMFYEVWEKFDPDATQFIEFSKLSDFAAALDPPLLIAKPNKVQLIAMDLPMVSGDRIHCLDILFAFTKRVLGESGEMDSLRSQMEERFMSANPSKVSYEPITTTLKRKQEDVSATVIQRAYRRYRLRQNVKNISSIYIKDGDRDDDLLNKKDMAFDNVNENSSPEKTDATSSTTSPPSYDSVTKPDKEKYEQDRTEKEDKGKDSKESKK
hNav1.7, sequence (Q07699 whole entry partner, looked up): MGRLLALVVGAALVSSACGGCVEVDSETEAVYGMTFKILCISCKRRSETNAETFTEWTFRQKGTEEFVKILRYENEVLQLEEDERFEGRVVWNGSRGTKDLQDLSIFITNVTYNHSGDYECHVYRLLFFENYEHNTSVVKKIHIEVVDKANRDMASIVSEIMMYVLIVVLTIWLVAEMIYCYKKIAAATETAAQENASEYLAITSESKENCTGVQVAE

This assay has as its target hNav1.7 (Homo sapiens (Human), UniProt Q15858). As to the kind of experiment: Tritiated compound binding to membranes from cells expressing hNav1.7 and the β1 subunit (Nav1.7 LBA EVO). The note with it: competitive binding vs [3H]compound, membranes with hNav1.7 and β1 subunit. On the procedure:
Example 64a. Tritiated Compound Binding to Membranes Isolated from Cells that Heterologously Express hNav1.7 and the β1 Subunit
Preparation of membranes containing recombinantly expressed sodium channels: Frozen recombinant cell pellets are thawed on ice and diluted to 4 times the cell pellet weight with ice cold 50 mM Tris HCl, pH 7.4 buffer. The cell suspensions are homogenized on ice using a motorized glass dounce homogeniser. Homogenates are further diluted 8.4 times with ice cold 50 mM Tris HCl, pH 7.4 buffer and then centrifuged at 200×g at 4° C. for 15 minutes. The supernatants are collected and centrifuged at 10000×g at 4° C. for 50 min. The pellets are then re-suspended in 100 mM NaCl, 20 mM Tris HCl, pH 7.4 buffer containing 1% v/v protease inhibitors (Calbiochem) and re-homogenized on ice. The homogenized membranes are then processed through a syringe equipped with a 26 gauge needle. Protein concentrations arer determined by Bradford Assay and the membranes are stored at −80° C.
Radioligand Binding Studies: Saturation experiments. A competitive NaV1.7 inhibitor having a methyl group is tritiated. Three tritiums are incorporated in place of methyl hydrogens to generate [^3H]compound. Binding of this radioligand is performed in 5 mL borosilicate glass test tubes at room temperature. Binding is initiated by adding membranes to increasing concentrations of [^3H]compound in 100 mM NaCl, 20 mM Tris HCl, pH 7.4 buffer containing 0.01% w/v bovine serum albumin (BSA) for 18 h. Non-specific binding is determined in the presence of 1 μM unlabeled compound. After 18 h, the reactants are filtered through GF/C glass fiber filters presoaked in 0.5% w/v polyethylene imine. Filters are washed with 15 mL ice cold 100 mM NaCl, 20 mM Tris HCl, pH7.4 buffer containing 0.25% BSA to separate bound from free ligand. [^3H]compound bound to filters is quantified by liquid scintillation counting.
Competitive binding experiments: Binding reactions are performed in 96-well polypropylene plates at room temperature for 18 h. In 360 μL, membranes are incubated with 100 pM [^3H]compound and increasing concentrations of Test Compound. Non-specific binding is defined in the presence of 1 μM unlabeled compound. Reactions are transferred and filtered through 96-well glass fiber/C filter plates presoaked with 0.5% polyethylene imine. The filtered reactions are washed 5 times with 200 μL ice cold buffer containing 0.25% BSA. Bound radioactivity is determined by liquid scintillation counting.
Data Analysis: For saturation experiments, non-specific binding is subtracted from total binding to provide specific binding and these values are recalculated in terms of pmol ligand bound per mg protein. Saturation curves are constructed and dissociation constants are calculated using the single site ligand binding model: Beq=(Bmax*X)/(X+Kd), where Beq is the amount of ligand bound at equilibrium, Bmax is the maximum receptor density, Kd is the dissociation constant for the ligand, and X is the free ligand concentration. For competition studies percent inhibition is determined and IC50 values are calculated using a 4 parameter logistic model (% inhibition=(A+((B−A)/(1+((x/C)^D)))) using XLfit, where A and B are the maximal and minimum inhibition respectively, C is the IC50 concentration and D is the (Hill) slope.
Example 64b. Tritiated Compound Binding to Membranes Isolated from Cells that Heterologous Express hNav1.7 and the β1 Subunit
Preparation of membranes containing recombinantly expressed sodium channels: Following the procedure described in 31a, and making modifications as required to: centrifuge supernatants at 100000×g instead of 10000×g; re-suspend pellets in a buffer containing 0.01% BSA in addition to 100 mM NaCl, 20 mM Tris HCl, pH 7.4 buffer, and 1% v/v […]; and storing membranes at −80° C. in single use aliquots instead of pooled. […]
With `CN(C)[C@H]1C[C@@H](c2cccc(C(F)(F)F)c2)CC[C@@H]1Oc1ccc(S(=O)(=O)Nc2ccncn2)cn1` [Example 1, 6-(((1S,2S,4S)-2-(Dimethylamino)-4-(3-(trifluoromethyl)phenyl)cyclohexyl)oxy)-N-(pyrimidin-4-yl)pyridine-3-sulfonamide], the IC50 came to 28.2 nM.

`CN(C)[C@H]1C[C@@H](c2cccc(C(F)(F)F)c2)CC[C@@H]1Oc1ncc(S(=O)(=O)Nc2ccncn2)cc1Cl` [Example 3, 5-Chloro-6-(((1S,2S,4S)-2-(dimethylamino)-4-(3-(trifluoromethyl)phenyl)cyclohexyl)oxy)-N-(pyrimidin-4-yl)pyridine-3-sulfonamide] showed a 50% inhibitory concentration (IC50) of 40 nM.

Compound `CN(C)[C@H]1C[C@@H](c2cccc(C(F)(F)F)c2)CC[C@@H]1Nc1ncc(S(=O)(=O)Nc2ccncn2)cc1Cl` [Example 4, 5-Chloro-6-(((1S,2S,4S)-2-(dimethylamino)-4-(3-(trifluoromethyl)phenyl)cyclohexyl)amino)-N-(pyrimidin-4-yl)pyridine-3-sulfonamide] gave an IC50 of 8.3 nM.

As for `CN(C)[C@H]1C[C@@H](c2cccc(C(F)(F)F)c2)CC[C@@H]1Nc1ccc(S(=O)(=O)Nc2ccncn2)nc1` [Example 5, 5-(((1S,2S,4S)-2-(Dimethylamino)-4-(3-(trifluoromethyl)phenyl)cyclohexyl)amino)-N-(pyrimidin-4-yl)pyridine-2-sulfonamide], the IC50 was found to be 66.4 nM.

For `CN(C)[C@H]1C[C@@H](c2cccc(C(F)(F)F)c2)CC[C@@H]1Oc1ncc(S(=O)(=O)Nc2ccncn2)cc1C#N` [Example 6, 5-Cyano-6-(((1S,2S,4S)-2-(dimethylamino)-4-(3-(trifluoromethyl)phenyl)cyclohexyl)oxy)-N-(pyrimidin-4-yl)pyridine-3-sulfonamide formate], the IC50 came out at 44.8 nM.

`CN(C)[C@H]1C[C@@H](c2cccc(C(F)(F)F)c2)CC[C@@H]1Oc1ncc(S(=O)(=O)Nc2ccncn2)cc1C1CC1` [Example 7, 5-Cyclopropyl-6-(((1S,2S,4S)-2-(dimethylamino)-4-(3-(trifluoromethyl)phenyl)cyclohexyl)oxy)-N-(pyrimidin-4-yl)pyridine-3-sulfonamide formate] returned an IC50 of 4.88 nM. This IC50 is about 9.2-fold lower than that of the compound before.

Consider `O=S(=O)(Nc1ccncn1)c1ccc(O[C@H]2CC[C@H](c3cccc(OC(F)(F)F)c3)C[C@@H]2N2CCCC2)nc1` [Example 10, N-(pyrimidin-4-yl)-6-(((1S,2S,4S)-2-(pyrrolidin-1-yl)-4-(3-(trifluoromethoxy)phenyl)cyclohexyl)oxy)-pyridine-3-sulfonamide], for which the IC50 came to 67.4 nM.

Compound `CN(C)[C@H]1C[C@@H](c2ccc(Cl)c(C(F)(F)F)c2)CC[C@@H]1Nc1ccc(S(=O)(=O)Nc2ccncn2)cn1` [Example 11, 6-(((1S,2S,4S)-4-(4-chloro-3-(trifluoromethyl)phenyl)-2-(dimethylamino)cyclohexyl)amino)-N-(pyrimidin-4-yl)pyridine-3-sulfonamide formate] came in with an IC50 of 16.6 nM.

`CN(C)[C@H]1C[C@@H](c2ccc(Cl)c(C(F)(F)F)c2)CC[C@@H]1Oc1ccc(S(=O)(=O)Nc2ccncn2)cn1` [Example 12, 6-(((1S,2S,4S)-4-(4-chloro-3-(trifluoromethyl)phenyl)-2-(dimethylamino)cyclohexyl)oxy)-N-(pyrimidin-4-yl)pyridine-3-sulfonamide formate] had an IC50 of 1.27 nM. This IC50 lies about 13-fold lower than the previous one.

`CN(C)[C@H]1C[C@@H](c2cccc(OC(F)(F)F)c2)CC[C@@H]1Oc1ncc(S(=O)(=O)Nc2ccncn2)cc1Cl` [Example 13, 5-chloro-6-(((1S,2S,4S)-2-(dimethylamino)-4-(3-(trifluoromethoxy)phenyl)cyclohexyl)oxy)-N-(pyrimidin-4-yl)pyridine-3-sulfonamide] registered an IC50 of 13.8 nM.

In turn, `CN(C)[C@H]1C[C@@H](c2cccc(C(F)(F)F)c2)CC[C@@H]1Oc1ncc(S(=O)(=O)Nc2ccncn2)cc1C(F)(F)F` [Example 14, 6-(((1S,2S,4S)-2-(dimethylamino)-4-(3-(trifluoromethyl)phenyl)cyclohexyl)oxy)-N-(pyrimidin-4-yl)-5-(trifluoromethyl)pyridine-3-sulfonamide] had an IC50 of 43.7 nM. This IC50 is about 3.2-fold higher than that of the compound before.

Compound `Cc1cc(S(=O)(=O)Nc2ccncn2)cnc1O[C@H]1CC[C@H](c2cccc(C(F)(F)F)c2)C[C@@H]1N(C)C` [Example 15, 6-(((1S,2S,4S)-2-(Dimethylamino)-4-(3-(trifluoromethyl)phenyl)cyclohexyl)oxy)-5-methyl-N-(pyrimidin-4-yl)pyridine-3-sulfonamide] registered an IC50 of 40.8 nM.

For `O=S(=O)(Nc1ccncn1)c1ccc(N[C@H]2CC[C@H](c3cccc(C(F)(F)F)c3)C[C@@H]2N2CCCC2)nc1` [Example 16, N-(pyrimidin-4-yl)-6-(((1S,2S,4S)-2-(pyrrolidin-1-yl)-4-(3-(trifluoromethyl)phenyl)cyclohexyl)-amino)pyridine-3-sulfonamide formate], the IC50 was 25.1 nM.

For the compound `O=S(=O)(Nc1ccncn1)c1ccc(O[C@H]2CC[C@H](c3cccc(C(F)(F)F)c3)C[C@@H]2N2CCCC2)nc1` [Example 17, N-(pyrimidin-4-yl)-6-(((1S,2S,4S)-2-(pyrrolidin-1-yl)-4-(3-(trifluoromethyl)phenyl)cyclohexyl)oxy)-pyridine-3-sulfonamide formate], the IC50 turned out to be 1.18 nM.

The compound `O=S(=O)(Nc1ccncn1)c1cnc(O[C@H]2CC[C@H](c3cccc(C(F)(F)F)c3)C[C@@H]2N2CCCC2)c(Cl)c1` [Example 18, 5-chloro-N-(pyrimidin-4-yl)-6-(((1S,2S,4S)-2-(pyrrolidin-1-yl)-4-(3-(trifluoromethyl)phenyl)-cyclohexyl)oxy)pyridine-3-sulfonamide] displayed an IC50 of 0.95 nM.

As to `O=S(=O)(Nc1ccncn1)c1cnc(O[C@H]2CC[C@H](c3cccc(C(F)(F)F)c3)C[C@@H]2N2CCCCC2)c(Cl)c1` [Example 19, 5-chloro-6-(((1S,2S,4S)-2-(piperidin-1-yl)-4-(3-(trifluoromethyl)phenyl)cyclohexyl)oxy)-N-(pyrimidin-4-yl)pyridine-3-sulfonamide], the IC50 amounted to 0.493 nM. This IC50 is about 1.9-fold lower than that of the compound before.

As for `CN(C)[C@H]1C[C@@H](c2cccc(C(F)(F)F)c2)CC[C@@H]1Oc1ncc(S(=O)(=O)Nc2ccncn2)cc1Br` [Example 20, 5-bromo-6-(((1S,2S,4S)-2-(dimethylamino)-4-(3-(trifluoromethyl)phenyl)cyclohexyl)oxy)-N-(pyrimidin-4-yl)pyridine-3-sulfonamide formate], the IC50 turned out to be 28.2 nM. Against the preceding compound, the IC50 is about 57-fold higher.

On to `CN(C)[C@H]1C[C@@H](c2cccc(C(F)(F)F)c2)CC[C@@H]1Oc1ncc(S(=O)(=O)Nc2ccncn2)cc1F` [Example 21, 6-(((1S,2S,4S)-2-(Dimethylamino)-4-(3-(trifluoromethyl)phenyl)cyclohexyl)oxy)-5-fluoro-N-(pyrimidin-4-yl)pyridine-3-sulfonamide], for which the IC50 was 9.17 nM.

Turning to `CN(C)[C@H]1C[C@@H](c2cccc(C(F)(F)F)c2)CC[C@@H]1Oc1ccc(S(=O)(=O)Nc2ccncn2)c(Cl)n1` [Example 22, 2-Chloro-6-(((1S,2S,4S)-2-(dimethylamino)-4-(3-(trifluoromethyl)phenyl)cyclohexyl)oxy)-N-(pyrimidin-4-yl)pyridine-3-sulfonamide], the IC50 was 40 nM.

With `Cc1nc(O[C@H]2CC[C@H](c3cccc(C(F)(F)F)c3)C[C@@H]2N(C)C)ccc1S(=O)(=O)Nc1ccncn1` [Example 23, 6-(((1S,2S,4S)-2-(Dimethylamino)-4-(3-(trifluoromethyl)phenyl)cyclohexyl)oxy)-2-methyl-N-(pyrimidin-4-yl)pyridine-3-sulfonamide formate], the IC50 was found to be 8.3 nM. This IC50 is about 4.8-fold lower than that of the compound before.

A word on the IC50: it is the concentration needed to halve the response being measured.
